# ChEMBL document CHEMBL1139104, “Synthesis and evaluation of 4-O-alkylated 2-deoxy-2,3-didehydro-N-acetylneuraminic acid derivatives as inhibitors of human parainfluenza virus type-3 sialidase activity” (Bioorg Med Chem Lett, 2007)
# Experiment: Inhibition of sialidase in Human parainfluenza virus 3 C243
# Parameters: species or system Human respirovirus 3
row,SMILES,IC50
1,CCCCCCCCCCO[C@H]1C=C(C(=O)O)O[C@@H]([C@H](O)[C@H](O)CO)[C@@H]1NC(C)=O,10 µM
2,CC(=O)N[C@H]1[C@H]([C@H](O)[C@H](O)CO)OC(C(=O)O)=C[C@@H]1OCc1ccccc1,10 µM
3,CCO[C@H]1C=C(C(=O)O)O[C@@H]([C@H](O)[C@H](O)CO)[C@@H]1NC(C)=O,3 µM
4,CCCCCCO[C@H]1C=C(C(=O)O)O[C@@H]([C@H](O)[C@H](O)CO)[C@@H]1NC(C)=O,5 µM
5,CC(=O)N[C@H]1[C@H]([C@H](O)[C@H](O)CO)OC(C(=O)O)=C[C@@H]1OCc1ccccc1-c1ccccc1,30 µM
6,CC(=O)N[C@H]1[C@H]([C@H](O)[C@H](O)CO)OC(C(=O)O)=C[C@@H]1O [NEU5AC2EN],24 µM
7,CC(=O)N[C@H]1[C@H]([C@H](O)[C@H](O)CO)OC(C(=O)O)=C[C@@H]1NC(=N)N [ZANAMIVIR],25 µM
